We go through 8 molecules from patent US20230115945A1, “AMINOPYRIMIDINE COMPOUNDS” (TYRA BIOSCIENCES, INC., priority 2019, published 2023).

Experiment [1] concerns KG-1 cells (Acute Myeloid Leukemia, FGFR1OP2-FGFR1 fusion). The experiment in a line: Cancer cell line cell viability assay, KG-1. The experiment is classed as cell-based. Particulars: Homo sapiens, 72 hours, Cell Titer-Glo 2.0, read-out: Cancer Cell Viability Assays KG1 (IC50 nM). From the text: (§1) To detect the change of intracellular ATP by Cell Titer-Glo® and to evaluate the inhibitory effect of the compounds on cancer cell lines by determining the in vitro IC50 value of the compounds.
(§2) Cell Titer-Glo® 2.0 Luminescent cell viability assay reagent was purchased from Promega (Madison, Wis.). RT112/84, SNU-16, and KG-1 cell lines were purchased from American Type Culture Collection (Manassas, Va.). UM-UC-14 cell line was purchased from Sigma (St. Louis, Mo.). RT112/84, UM-UC-14, SNU-16, and KG-1 cells were cultured in RPMI1640 media supplemented with 10% fetal bovine serum. Cultures were maintained at 37° C. in a humidified atmosphere of 5% CO2 and 95% air.
(§3) Cell Viability Assay Procedure: Cells were plated in 96-well clear bottom/white plates (Corning #3903) at 10,000 cells/well in 100 μl of media, incubated overnight. The next day, test compound DMSO stock solutions were made at 10 mM and 2 μM final concentration. Compounds were then added to cells in a 9-dose, 10-fold dilution series starting at 30 μM with an HP 300e Digital Dispenser (each dose was applied in triplicate). DMSO was backfilled to each well up to 301 nL total volume of test compound+DMSO, and a total of 301 nL DMSO was added to a control/no test compound well in triplicate. The cells in cell culture plates were incubated with the compounds at 37° C. and 5% CO2 for 72 hours. Then 50 μl of Cell Titer Glo 2.0 reagent was added to each well of the cell culture plates. The contents were covered from light and mixed on an orbital shaker at room temperature for 10 min. Luminescence was recorded by a Synergy H1 Microplate Reader (Biotek, Winooski, Vt.). Cells were assessed as a percentage of DMSO only treated control cells. Curves were plotted and IC50 values were calculated using the GraphPad Prism 8 program based on a sigmoidal dose-response equation (4 parameter).

For experiment [2], the system named is UM-UC-14 cells (Bladder Cancer, FGFR3(S249C)). The experiment in a line: Cancer cell line cell viability assay, UM-UC-14. The experiment is classed as cell-based. The following applies: UMUC14; 72 hours, Cell Titer-Glo 2.0; read-out: Cancer Cell Viability Assays UM-UC-14 (IC50 nM).
Source text: as §1, §2, §3

For a further experiment, the target named is T1, FGFR1 (Homo sapiens, UniProt P11362).
T1 construct: made in house; host or cells: E. coli host derived from BL21, infected with T7 phage
The experiment in a line: Kinase binding assay (Kd), FGFR1. The following applies: 11-point 3-fold dilution, qPCR readout. The gist of the method: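 Competition binding: kinase-tagged T7 phage, ligand-coated streptavidin beads and an 11-point 3-fold compound series (0.9% DMSO final) were incubated 1 h at room temperature. Bead-bound kinase was eluted and quantified by qPCR. Kd was fitted to the Hill equation with slope fixed at −1.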

The target in experiment [3] is T2, FGFR3-BAIAP2L1 Ba/F3 cells (Homo sapiens, UniProt P22607).
T2 construct: Ba/F3 FGFR3; FGFR3--BAIAP2L1 fusion; Advanced Cellular Dynamics, (Seattle, WA); fused on or other part: Q9UHR4 (BAR/IMD domain-containing adapter protein 2-like 1)
Put plainly: Ba/F3 cell viability assay, FGFR3. The experiment is classed as cell-based. The following applies: FGFR3-BAIAP2L1 fusion Ba/F3, 48 hours, Cell Titer-Glo 2.0; read-out: Ba/F3 Cells FGFR3 (IC50 nM).
Source text: Experimental Purpose: Recombinant kinase fusions are transduced into parental Ba/F3, which becomes dependent upon this constitutive kinase activity for IL3-independent survival. Inhibition of kinase activity leads to cell death, which is monitored using CellTiter-Glo® 2.0 (Promega) which measures intracellular ATP concentration that in turn serves as a marker for viability. FGFR1-BCR Ba/F3 and FGFR3-BAIAP2L1 Ba/F3 were obtained from Advanced Cellular Dynamics (Seattle, Wash.)
Cell Viability Assay Procedure: Cell Titer-Glo® 2.0 Luminescent cell viability assay reagent was purchased from Promega (Madison, Wis.). FGFR1-BCR Ba/F3 and FGFR3-BAIAP2L1 Ba/F3 cells were cultured in RPMI1640 media supplemented with 10% fetal bovine serum. Cultures were maintained at 37° C. in a humidified atmosphere of 5% CO2 and 95% air.
as §3, with “Cells” for “Cell Viability Assay Procedure: Cells”, “48” for “72”

T1 sequence (P11362 22-822): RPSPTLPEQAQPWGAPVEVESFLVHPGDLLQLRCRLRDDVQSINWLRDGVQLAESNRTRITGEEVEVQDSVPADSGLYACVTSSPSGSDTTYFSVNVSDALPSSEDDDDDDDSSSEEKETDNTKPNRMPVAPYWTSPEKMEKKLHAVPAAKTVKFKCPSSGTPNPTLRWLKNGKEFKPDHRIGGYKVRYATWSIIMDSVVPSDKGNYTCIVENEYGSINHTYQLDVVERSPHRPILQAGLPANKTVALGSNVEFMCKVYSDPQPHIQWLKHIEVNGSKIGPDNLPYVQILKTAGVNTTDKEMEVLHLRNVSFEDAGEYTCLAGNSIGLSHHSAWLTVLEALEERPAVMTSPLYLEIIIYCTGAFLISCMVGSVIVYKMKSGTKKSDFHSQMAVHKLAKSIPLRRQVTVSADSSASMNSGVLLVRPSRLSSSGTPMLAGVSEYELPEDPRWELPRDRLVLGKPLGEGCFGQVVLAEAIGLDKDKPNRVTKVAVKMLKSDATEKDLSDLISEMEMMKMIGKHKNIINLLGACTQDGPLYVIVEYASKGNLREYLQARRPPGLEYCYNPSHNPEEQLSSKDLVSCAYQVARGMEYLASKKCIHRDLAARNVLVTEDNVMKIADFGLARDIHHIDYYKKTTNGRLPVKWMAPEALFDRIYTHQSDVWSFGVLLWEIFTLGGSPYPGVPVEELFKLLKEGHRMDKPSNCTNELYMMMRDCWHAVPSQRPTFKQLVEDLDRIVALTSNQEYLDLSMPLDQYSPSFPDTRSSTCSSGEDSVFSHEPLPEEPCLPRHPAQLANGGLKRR
T2 sequence (P22607 whole entry, change not shown, the tested form may be a part): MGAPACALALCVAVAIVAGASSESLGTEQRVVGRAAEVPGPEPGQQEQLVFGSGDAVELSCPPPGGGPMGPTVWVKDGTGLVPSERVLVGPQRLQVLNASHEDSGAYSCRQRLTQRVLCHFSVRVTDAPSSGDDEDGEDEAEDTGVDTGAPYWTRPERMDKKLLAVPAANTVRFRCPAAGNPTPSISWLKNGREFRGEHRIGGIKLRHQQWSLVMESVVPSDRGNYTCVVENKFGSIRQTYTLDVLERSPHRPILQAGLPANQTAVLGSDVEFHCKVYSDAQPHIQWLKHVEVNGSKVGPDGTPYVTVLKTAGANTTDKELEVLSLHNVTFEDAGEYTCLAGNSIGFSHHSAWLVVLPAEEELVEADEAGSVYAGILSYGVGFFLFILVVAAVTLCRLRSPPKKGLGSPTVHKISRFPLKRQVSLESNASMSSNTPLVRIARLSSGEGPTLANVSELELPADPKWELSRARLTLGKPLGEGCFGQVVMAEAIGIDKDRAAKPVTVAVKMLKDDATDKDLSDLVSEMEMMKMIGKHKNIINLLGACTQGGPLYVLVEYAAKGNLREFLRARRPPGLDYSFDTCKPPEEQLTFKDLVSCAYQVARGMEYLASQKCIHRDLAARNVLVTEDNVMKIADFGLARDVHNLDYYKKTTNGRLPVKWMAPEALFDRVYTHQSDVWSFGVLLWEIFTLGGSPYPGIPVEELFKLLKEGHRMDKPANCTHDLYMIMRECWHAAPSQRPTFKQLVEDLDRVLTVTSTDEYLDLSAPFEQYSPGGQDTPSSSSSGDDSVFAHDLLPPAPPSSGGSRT

Consider `C=CC(=O)Nc1ccc2c(c1)c(C)cn2-c1nc(Nc2ccc(N=S(C)(C)=O)c(F)c2)ncc1Cl` [Example 60, N-[1-[5-Chloro-2-[4-[[dimethyl(oxo)-λ^6-sulfanylidene]amino]-3-fluoro-anilino]pyrimidin-4-yl]-3-methyl-indol-5-yl]prop-2-enamide], for which the IC50 amounted to 4 nM in experiment [1] and 6 nM in experiment [2]. This molecule registered a Kd on FGFR1 of 14 nM. Also, the GI50 in experiment [3] worked out at 10 nM.
For the molecule `C=CC(=O)Nc1ccc2c(c1)c(C)cn2-c1nc(Nc2ccc(N=S(C)(C)=O)cc2)ncc1Cl` [Example 61, N-[1-[5-Chloro-2-[4-[[dimethyl(oxo)-λ^6-sulfanylidene]amino]anilino]pyrimidin-4-yl]-3-methyl-indol-5-yl]prop-2-enamide], the IC50 came to 6 nM in experiment [1] and 12 nM in experiment [2]. Also, on FGFR1, the Kd came to 21 nM. Further, the GI50 in experiment [3] turned out to be 15 nM.
The like results for `C=CC(=O)Nc1ccc2c(c1)c(C)cn2-c1nc(Nc2ccc(N=S(C)(C)=O)c(F)c2)ncc1C#N` [Example 62, N-[1-[5-Cyano-2-[4-[[dimethyl(oxo)-λ^6-sulfanylidene]amino]-3-fluoro-anilino]pyrimidin-4-yl]-3-methyl-indol-5-yl]prop-2-enamide] were, in that order, 17 nM, 152 nM, 79 nM and 46 nM.
In the same order, the values of `C=CC(=O)Nc1ccc2c(c1)c(C)cn2-c1nc(Nc2ccc(N=S(C)(C)=O)c(F)c2)ncc1C` [Example 63, N-[1-[2-[4-[[dimethyl(oxo)-λ^6-sulfanylidene]amino]-3-fluoro-anilino]-5-methyl-pyrimidin-4-yl]-3-methyl-indol-5-yl]prop-2-enamide] are 1 nM, 3 nM, 10 nM and 5 nM.
The like results for `C=CC(=O)Nc1ccc2c(c1)c(C)cn2-c1nc(Nc2ccc(N=S(C)(C)=O)c(OC)c2)ncc1Cl` [Example 64, N-[1-[5-Chloro-2-[4-[[dimethyl(oxo)-λ^6-sulfanylidene]amino]-3-methoxy-anilino]pyrimidin-4-yl]-3-methyl-indol-5-yl]prop-2-enamide] were, in that order, 1 nM, 3 nM, 5 nM and 12 nM.
As for `C=CC(=O)Nc1ccc2c(ccn2-c2nc(Nc3ccc(N=S(C)(C)=O)cc3)ncc2Cl)c1` [Example 66, N-[1-[5-chloro-2-[4-[[dimethyl(oxo)-λ^6-sulfanylidene]amino]anilino]-pyrimidin-4-yl]indol-5-yl]prop-2-enamide], the IC50 turned out to be 20 nM in experiment [1] and 34 nM in experiment [2]. Also, on FGFR1, the Kd came out at 61 nM. In experiment [3], the GI50 amounted to 28 nM.
The like results for `C=CC(=O)Nc1ccc2c(ccn2-c2nc(Nc3ccc(S(C)(=N)=O)cc3)ncc2Cl)c1` (centres unmarked) [Example 70, N-[1-[5-Chloro-2-[4-(methylsulfonimidoyl)anilino]-pyrimidin-4-yl]indol-5-yl]prop-2-enamide] were, in that order, 9 nM, 34 nM, 230 nM and 34 nM.
The like results for `C=CC(=O)Nc1ccc2c(-c3nc(Nc4ccc(N=S(C)(C)=O)cc4)ncc3Cl)cn(C)c2c1` [Example 92, N-[3-[5-chloro-2-[4-[[dimethyl(oxo)-λ^6-sulfanylidene]amino]anilino]pyrimidin-4-yl]-1-methyl-indol-6-yl]prop-2-enamide] were, in that order, 5 nM, 10 nM, 63 nM and 15 nM.
